Literature values in patent US20090114566A1, “METHOD OF UPGRADING HEAVY HYDROCARBON STREAMS TO JET PRODUCTS” (Chevron U.S.A. Inc., priority 2007, published 2009).
Where two headings read alike, the source gives them in different places.

Test system: rats

## CCOCC(=O)O [ethoxy-acetic acid]
rat, in vivo, po
  LD50: 1292 mg/kg

## O=C(O)/C=C/C(=O)O [fumaric acid]
rat, in vivo, po
  LD50: 10700 mg/kg

## O=C(O)[C@H](O)[C@@H](O)[C@H](O)[C@H](O)CO [gluconic acid]
Single oral dose to rats
  LD50: 10380 mg/kg

## O=CC(=O)O [glyoxylic, glyoxylic acid]
rat, in vivo, po
  LD50: 3000 mg/kg

## CC(O)C(=O)O (stereo not drawn) [lactic acid]
Single oral dose to rats
  LD50: 3543 mg/kg

## O=C(O)CC(O)C(=O)O (stereo not drawn) [malic acid]
Single oral dose to rats
  LD50: 1600 mg/kg

## O=C(O)CC(S)C(=O)O (stereo not drawn) [mercapto-succinic acid]
rat, in vivo, po
  LD50: 800 mg/kg

## COCC(=O)O [methoxy-acetic acid]
rat, in vivo, po
  LD50: 3200 mg/kg

## O=C(O)CCC(=O)O [succinic acid]
rat, in vivo, po
  LD50: 500 mg/kg
